From patent US20070179181A1, “Treatment of inflammatory disorders and pain using beta-aminoalcohols” (priority 2004, published 2007)

Experiments:
alpha1 adrenoceptor = test: Alpha1 adrenoceptor binding affinity (3H-prazosin, rat brain homogenate); parameters: species or system Wistar rats; settings: radioligand 3H-prazosin 0.25 nM
Procedure: (§1) Adrenoceptor Binding Affinity Brains from Wistar rats were homogenised and incubated with test article (over a concentration range) and the radioligand 3H-prazosin (0.25 nM) for 30 minutes at 25° C., in a 50 mM Tris-HCl, 0.1% ascorbic acid, 10 μM pargyline incubation buffer. After washing, binding was measured by scintillation counting. LPS Mouse Assay

[1] = tested on: rat adjuvant model of arthritis; test: Rat adjuvant assay (model of arthritis); assay type: in vivo, Wistar rats
Procedure: Rat Adjuvant Assay Male Wistar rats (180 to 200 g) were inoculated by subplantar injection of freund's adjuvant (suspension of Mycobacterium butyricum in mineral oil) into the right paw at day 0. Sham inoculations were injected in the same way with 0.9% saline in matched Male Wistar rats. On day 2 animals were weighed. On days 3, 4, 7, 9 and 11 animals were weighed and both their right and left hind paws were measure by plethsymometry by submerging the paw up to the tibiotarsal joint. On day 11, rats with left hind paw volumes increased by 20% were selected for continuance in the study. On the same day continuance rats were administered test article orally (10 ml/kg in distilled water) and from then on once a day until the completion of the study. Left and right hind paw volumes were measured on days 11, 14, 15, 16, 18 and 21.

TNFα = test: LPS mouse assay, serum TNFα; assay type: in vivo, Balb C ByJ mice; settings: LPS-challenged mouse
Procedure: as §1, with “Brains” for “Adrenoceptor Binding Affinity Brains”
7 week old Balb C ByJ mice (24-28 g) were administered, either by i.p. (5 ml/kg) or oral (10 ml/kg) administration, with vehicle or test article. 30 minutes later these animals were challenged with an intraperitoneal injection of 1 mg/kg LPS. 2 hours after LPS challenge blood samples were collected under light isoflurane anaesthesia into normal tubes by retro-orbital puncture. Samples were allowed to clot at room temperature and then spun at 6000 g for 3 min at 4° C. Serum was stored at −20° C. until use. Serum TNFa and IL-10 levels were analysed in duplicate by ELISA technique.

Row | Compound | Alpha1 affinity (alpha1 adrenoceptor) [nM] | also measured
1 | CC(C(O)c1ccc(O)cc1)N1CCC(Cc2ccccc2)CC1 (stereo not drawn) [erythro (+), Ifenprodil] | 63 | –
2 | CC(C(O)c1ccc(O)cc1)N1CCC(Cc2ccccc2)CC1 (stereo not drawn) [erythro (−), Ifenprodil] | 482 | –
3 | CC(CCc1ccccc1)NCC(O)c1ccc(O)c(C(N)=O)c1 (stereo not shown) [labetalol] | – | efficacy in rat adjuvant model of arthritis ([1]; 30 mg/kg): Pronounced (and similar) efficacy; efficacy in rat adjuvant model of arthritis ([1]; 100 mg/kg): Pronounced (and similar) efficacy
4 | CC(NCCc1ccc(O)cc1)C(O)c1ccc(O)cc1 (stereo not shown) [ritodrine] | – | LPS-induced systemic TNFα release in mouse blood (TNFα): cytokine modulatory activity
5 | CC(C(O)c1ccc(O)cc1)N1CCC(Cc2ccccc2)CC1 (stereo not drawn) [threo (+), Ifenprodil] | 2160 | –
6 | CC(C(O)c1ccc(O)cc1)N1CCC(Cc2ccccc2)CC1 (stereo not drawn) [threo (−), Ifenprodil] | 439 | –
